Entries after “also recorded” stand apart in the source; their conditions may differ.
Key:
clinical = settings: both sexes, human, in vivo, 550 mg
Procedure: Over-encapsulation was utilized to maintain study blind. […] Approximately 50 older healthy female and male adult subjects (1:1 ratio) were randomized into 1 of 2 cohorts:Cohort 1 or Cohort 2, N=˜25 subjects per cohort.
There was a single AM fasting dose on Day 4 for both drugs. There was a 6-day wash-out period between drug cross-over.
Subjects were discharged on Day 4 following successful completion of all assessments and at the Investigator's discretion.
Subjects were then administered a single dose of their randomized treatment on the morning of Day 14 following an overnight fast of at least 8 hours. Subjects were discharged on Day 14 following successful completion of all assessments and at the Investigator's discretion.
An evening snack was served ≥3 hours following evening study medication administration. On Day 4 (Treatment Period 1) and Day 14 (Treatment Period 2), subjects were administered their assigned study drug once in the morning following an overnight fast of at least 8 hours (with approximately 240 mL of non-carbonated water). No additional fluids were allowed during the 1 hour pre- and post-dose.
Blood samples for PK were collected for Cohorts 1 and 2 at specified times during both periods, as follows: • Days 1 & 11:0 (pre-morning dose) • Days 2 & 12: no sampling. • Days 3 & 13:0 (pre-morning dose), and 1, 2, 3, 4, 6 (pre-mid-day dose), 7, 8, 9, 10, 12 (pre-evening dose), 13, 14, 15, 16, and 17 hours post-morning dose • Days 4 & 14:0 (pre-morning dose), and 1, 2, 3, 4, 6 (post-dose),

[1] = system: patients with Idiopathic Pulmonary Fibrosis (IPF); assay: IPF trial Part B (open label long-term extension): efficacy, safety, TEAEs; assay type: in vivo, human
Source text: Part B (long-term extension) will evaluate the tolerability and long-term safety of LYT-100 in patients who complete the Double-blind Treatment Period. Part B has two periods. […] Patients completing Part B Period 1 will continue maintenance treatment in Part B Period 2 until the study ends. Part B Period 2 will continue at least until all patients who enter Part B Period 1 have the opportunity to complete Part B Period 1. Tolerability and safety during both Part B Period 1 and Part B Period 2 will be monitored by regularly scheduled review of adverse events (AEs), patient reported symptoms, concomitant medications, clinical laboratory findings, physical examinations, electrocardiograms (ECGs), and vital signs. Efficacy will be assessed by evaluation of pulmonary function and monitored by spirometry at regularly scheduled clinic visits. A graphical illustration of an embodiment of the trial design is provided as FIG. 24C.
At the start of Part B, all patients received LYT-100 oral tablets. Patients were titrated onto their assigned doses.
The proportion of patients with prior exposure to nintedanib was limited to 50%.
One hundred and seventy (170) patients (greater than 90%) enrolled in the Open Label Extension (Part B) of the study.

older, healthy subjects = assay: Crossover study Part 2: safety and tolerability (TEAEs), fed and fasted; assay type: in vivo, human
Source text: Over-encapsulation was utilized to maintain study blind. […] Approximately 50 older healthy female and male adult subjects (1:1 ratio) were randomized into 1 of 2 cohorts:Cohort 1 or Cohort 2, N=˜25 subjects per cohort. Subjects in each cohort were randomized to treatment sequence as follows: • Sequence A: Pirfenidone to LYT-100 • Sequence B: LYT-100 to pirfenidone

[2] = system: rat BLM induced lung fibrosis model; assay: Rat bleomycin induced lung fibrosis model, Phase II (efficacy); settings: bleomycin rats, LYT-100 400 mg/kg QD / nintedanib 60 mg/kg BID
Procedure: For Groups 4, 5, 6, and 7, bleomycin and vehicle dosing were conducted as indicated in Table 28 (0.45 mg/kg, at 1696 IU/mg of Bleomycin or saline on Day 1, 2, 3, 6 and 7).

[3] = system: patients with Idiopathic Pulmonary Fibrosis (IPF); assay: IPF trial Part A: clinical laboratory parameters, liver; assay type: in vivo, human
CYP2D6 = target: T1, CYP2D6 (Homo sapiens, UniProt P10635); assay: In vitro stability with recombinant human CYP2D6; assay type: in vitro ADME; settings: recombinant human isozyme; read-out: t1/2 following incubation with CYP2D6 (converted)
T1 construct: host or cells: heterologous cell systems (not specified)
T1 sequence (P10635 whole entry): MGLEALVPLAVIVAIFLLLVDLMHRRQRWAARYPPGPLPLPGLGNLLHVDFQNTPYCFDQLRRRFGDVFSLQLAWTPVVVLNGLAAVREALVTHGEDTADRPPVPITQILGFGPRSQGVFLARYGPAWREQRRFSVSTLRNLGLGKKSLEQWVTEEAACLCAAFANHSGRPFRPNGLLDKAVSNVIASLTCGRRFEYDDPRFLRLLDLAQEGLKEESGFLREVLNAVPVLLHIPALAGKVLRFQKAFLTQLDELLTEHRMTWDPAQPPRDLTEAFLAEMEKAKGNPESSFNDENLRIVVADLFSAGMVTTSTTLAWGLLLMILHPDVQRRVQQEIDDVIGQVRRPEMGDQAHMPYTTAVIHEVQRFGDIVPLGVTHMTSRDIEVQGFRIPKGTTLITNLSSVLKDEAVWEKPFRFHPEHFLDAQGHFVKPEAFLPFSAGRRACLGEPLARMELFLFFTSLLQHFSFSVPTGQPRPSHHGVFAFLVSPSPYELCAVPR
Procedure: (§1) The half-life (t½) of each test article was determined.

CYP1A2 = target: T2, CYP1A2 (Homo sapiens, UniProt P05177); assay: In vitro stability with recombinant human CYP1A2; assay type: in vitro ADME; settings: recombinant human isozyme; read-out: t1/2 following incubation with CYP1A2 (converted)
T2 construct: host or cells: heterologous cell systems (not specified)
T2 sequence (P05177 1-516): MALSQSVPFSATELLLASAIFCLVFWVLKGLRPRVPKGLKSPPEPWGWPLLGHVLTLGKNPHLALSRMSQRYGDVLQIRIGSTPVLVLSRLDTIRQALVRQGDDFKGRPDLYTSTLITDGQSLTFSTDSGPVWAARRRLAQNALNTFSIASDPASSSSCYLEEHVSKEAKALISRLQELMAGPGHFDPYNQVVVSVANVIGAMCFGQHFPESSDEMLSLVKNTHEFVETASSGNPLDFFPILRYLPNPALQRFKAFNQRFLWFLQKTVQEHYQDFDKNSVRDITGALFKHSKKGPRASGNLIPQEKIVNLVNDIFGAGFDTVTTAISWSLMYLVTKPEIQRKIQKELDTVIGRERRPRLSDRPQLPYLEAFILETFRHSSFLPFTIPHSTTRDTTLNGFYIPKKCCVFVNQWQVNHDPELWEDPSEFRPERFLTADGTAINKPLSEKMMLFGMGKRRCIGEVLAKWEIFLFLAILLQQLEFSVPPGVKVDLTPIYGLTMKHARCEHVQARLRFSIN
Procedure: as §1

[4] = Part A LYT-100 → Part B LYT-100 (N = 81)
[5] = Part A Pirfenidone → Part B LYT-100 (N = 39)
[6] = Part A Placebo → Part B LYT-100 (N = 50)

Which results are given for `[2H]C([2H])([2H])c1ccc(=O)n(-c2ccccc2)c1` [LYT-100, 5-(methyl-d3)-1-phenylpyridin-2-(1H)-one]?
AUC(0-t) (clinical; AUC0-24, parent): 34.1 µg·h/mL; Cmax (clinical; Cmax, parent): 9.17 µg/mL; response in Open Label Extension ([1]; IPF Part B, ongoing, LYT-100 825 mg TID (FIG. 49)): durable response; TEAE Abdominal Pain [1, 4]: 2 (2.5) n (%); TEAE Diarrhea [1, 4]: 2 (2.5) n (%); TEAE Dyspepsia [1, 4]: 7 (8.6) n (%); TEAE Nausea [1, 4]: 5 (6.2) n (%); TEAE SOC Gastrointestinal disorders [1, 4]: 17 (21.0) n (%); TEAE Vomiting [1, 4]: 2 (2.5) n (%); TEAE Abdominal Pain [1, 5]: 1 (2.6) n (%); TEAE Diarrhea [1, 5]: 1 (2.6) n (%); TEAE Dyspepsia [1, 5]: 0 n (%); TEAE Nausea [1, 5]: 2 (5.1) n (%); TEAE SOC Gastrointestinal disorders [1, 5]: 5 (12.8) n (%); TEAE Vomiting [1, 5]: 0 n (%); TEAE Abdominal Pain [1, 6]: 2 (4.0) n (%); TEAE Diarrhea [1, 6]: 2 (4.0) n (%); TEAE Dyspepsia [1, 6]: 7 (14.0) n (%); TEAE Nausea [1, 6]: 7 (14.0) n (%); TEAE SOC Gastrointestinal disorders [1, 6]: 18 (36.0) n (%); TEAE Vomiting [1, 6]: 3 (6.0) n (%); TEAE Abdominal Pain ([1]; Part B Subtotal (N = 170)): 5 (2.9) n (%); TEAE Diarrhea ([1]; Part B Subtotal (N = 170)): 5 (2.9) n (%); TEAE Dyspepsia ([1]; Part B Subtotal (N = 170)): 14 (8.2) n (%); TEAE Nausea ([1]; Part B Subtotal (N = 170)): 14 (8.2) n (%); TEAE SOC Gastrointestinal disorders ([1]; Part B Subtotal (N = 170)): 40 (23.5) n (%); TEAE Vomiting ([1]; Part B Subtotal (N = 170)): 5 (2.9) n (%); deaths or serious AEs (older, healthy subjects; Part 2): No deaths or serious AEs; TEAEs leading to study discontinuation, subjects (older, healthy subjects; in vivo): one; hydroxyproline content (μg per mg of wet lung) vs bleomycin/vehicle ([2]; Day 8-27): reduced the hydroxyproline content; also recorded: reduced lung hydroxyproline content; lung fibrosis scores (histopathology) vs bleomycin/vehicle ([2]; Day 8-27): did not affect the fibrosis scores; lung sections with fibrosis Score 1 ([2]; Day 8-27): 33%; lung sections with fibrosis Score 2 ([2]; Day 8-27): 36%; mean lung weight vs bleomycin/vehicle ([2]; Day 8-27): did not affect mean lung weight; median lung fibrosis scores vs bleomycin/vehicle ([2]; Day 8-27): reduced median fibrosis scores; total left lung hydroxyproline (μg per left lung) vs bleomycin/vehicle ([2]; Day 8-27): did not affect total hydroxyproline levels; body weight gain ([2]; oral gavage Day 8-27): resumed and at a rate similar to Group 4; also recorded: did not negatively affect body weight developments; liver enzyme elevations, drug-induced liver injury ([3]; IPF Part A): no instances of drug-induced liver injury or Hy's Law; Alanine Aminotransferase (U/L) at Worst Post-Baseline, 3-5 ULN ([3]; TID Pooled (N = 129), N1 120): 2 (1.7) n (%); Alanine Aminotransferase (U/L) at Worst Post-Baseline, 5-8 ULN ([3]; TID Pooled (N = 129), N1 120): 1 n (%); Alanine Aminotransferase (U/L) at Worst Post-Baseline, >8 ULN ([3]; TID Pooled (N = 129), N1 120): 2 n (%); Alanine Aminotransferase (U/L) at Worst Post-Baseline, Total (>3 ULN) ([3]; TID Pooled (N = 129), N1 120): 5 (4.2) n (%); Alanine Aminotransferase or Aspartate Aminotransferase (U/L) at Worst Post-Baseline, 3-5 ULN ([3]; TID Pooled (N = 129), N1 120): 2 (1.7) n (%); Alanine Aminotransferase or Aspartate Aminotransferase (U/L) at Worst Post-Baseline, 5-8 ULN ([3]; TID Pooled (N = 129), N1 120): 1 n (%); Alanine Aminotransferase or Aspartate Aminotransferase (U/L) at Worst Post-Baseline, >8 ULN ([3]; TID Pooled (N = 129), N1 120): 2 n (%); Alanine Aminotransferase or Aspartate Aminotransferase (U/L) at Worst Post-Baseline, Total (>3 ULN) ([3]; TID Pooled (N = 129), N1 120): 5 (4.2) n (%); Aspartate Aminotransferase (U/L) at Worst Post-Baseline, 3-5 ULN ([3]; TID Pooled (N = 129), N1 120): 2 (1.7) n (%); Aspartate Aminotransferase (U/L) at Worst Post-Baseline, 5-8 ULN ([3]; TID Pooled (N = 129), N1 120): 0 n (%); Aspartate Aminotransferase (U/L) at Worst Post-Baseline, >8 ULN ([3]; TID Pooled (N = 129), N1 120): 2 n (%); Aspartate Aminotransferase (U/L) at Worst Post-Baseline, Total (>3 ULN) ([3]; TID Pooled (N = 129), N1 120): 4 (3.3) n (%); half-life (CYP2D6): 2.72 h; half-life (CYP1A2): 9.08 h
